Measured values reported in article PMC11931604 (Drug Development Research, 2025).
Entries after “also recorded” stand apart in the source; their conditions may differ. Read-outs that look alike come from different tables or passages of the source.

Columns and labels:
A/H3N2 (A/HK/7/87) = assay: microbe, parasite or virus in culture; assay type: cell-based, influenza A virus; settings: for EC50: Influenza A virus, H3N2, MDCK; for anti-A/H3N2 activity (in words): MDCK cells
[1] = system: A/H1N1 (strain A/Ned/378/05); assay: CPE reduction assay in MDCK cells, influenza A/H1N1; assay type: cell-based; settings: Influenza A virus
in vitro = settings: dog
IBV (B/Ned/537/05) = assay: CPE reduction assay in MDCK cells, influenza B virus; assay type: cell-based
[2] = read-out: Antiviral EC50 A/H3N2 CPE
[3] = read-out: Antiviral EC50 A/H3N2 MTS
[4] = read-out: Antiviral EC50 A/H1N1 CPE
[5] = read-out: Antiviral EC50 A/H1N1 MTS
[6] = read-out: Antiviral EC50 IBV CPE
[7] = read-out: Antiviral EC50 IBV MTS

Row | Compound | EC50 (A/H3N2 (A/HK/7/87); [2]) [µM] | EC50 (A/H3N2 (A/HK/7/87); [3]) [µM] | EC50 [1, 4] [µM] | EC50 [1, 5] [µM] | CC50 (in vitro) [µM] | EC50 (IBV (B/Ned/537/05); [6]) [µM] | EC50 (IBV (B/Ned/537/05); [7]) [µM] | anti-A/H3N2 activity (in words) (A/H3N2 (A/HK/7/87))
1 | CC(C)(C)c1ccc(C(=O)NN2C(=O)CSC23CCCCC3)cc1 [Compound 1a, 4‐(tert‐Butyl)‐N‐(3‐oxo‐1‐thia‐4‐azaspiro[4.5]decan‐4‐yl)benzamide] | > 100 | > 100 | > 100 | > 100 | > 100 | > 100 | > 100 | –
2 | CC1CCCC2(C1)SCC(=O)N2NC(=O)c1ccc(C(C)(C)C)cc1 (stereo not drawn) [Compound 1b, 4‐(tert‐Butyl)‐N‐(7‐methyl‐3‐oxo‐1‐thia‐4‐azaspiro[4.5]decan‐4‐yl)benzamide] | > 100 | > 100 | > 100 | > 100 | 11 | > 100 | > 100 | –
3 | CC1CCC2(CC1)SCC(=O)N2NC(=O)c1ccc(C(C)(C)C)cc1 (stereo not drawn) [Compound 1c, 4‐(tert‐Butyl)‐N‐(8‐methyl‐3‐oxo‐1‐thia‐4‐azaspiro[4.5]decan‐4‐yl)benzamide] | > 100 | > 100 | > 100 | > 100 | > 100 | > 100 | > 100 | inactive; also recorded: lacks anti‐A/H3N2 activity
4 | CCC1CCC2(CC1)SCC(=O)N2NC(=O)c1ccc(C(C)(C)C)cc1 (stereo not drawn) [Compound 1d, 4‐(tert‐Butyl)‐N‐(8‐ethyl‐3‐oxo‐1‐thia‐4‐azaspiro[4.5]decan‐4‐yl)benzamide] | > 100 | > 100 | > 100 | > 100 | > 100 | > 100 | > 100 | –
5 | CCCC1CCC2(CC1)SCC(=O)N2NC(=O)c1ccc(C(C)(C)C)cc1 (stereo not drawn) [Compound 1e, 4‐(tert‐Butyl)‐N‐(3‐oxo‐8‐propyl‐1‐thia‐4‐azaspiro[4.5]decan‐4‐yl)benzamide] | > 100 | > 100 | > 100 | > 100 | > 100 | > 100 | > 100 | –
6 | CC(C)(C)c1ccc(C(=O)NN2C(=O)CSC23CCC(C(C)(C)C)CC3)cc1 (stereo not drawn) [Compound 1f, 4‐(tert‐Butyl)‐N‐(8‐(tert‐butyl)‐3‐oxo‐1‐thia‐4‐azaspiro[4.5]decan‐4‐yl)benzamide] | > 100 | > 100 | > 100 | > 100 | > 100 | > 100 | > 100 | –
7 | CC1SC2(CCCCC2)N(NC(=O)c2ccc(C(C)(C)C)cc2)C1=O (stereo not drawn) [Compound 2a, 4‐(tert‐Butyl)‐N‐(2‐methyl‐3‐oxo‐1‐thia‐4‐azaspiro[4.5]decan‐4‐yl)benzamide] | > 100 | > 100 | > 100 | > 100 | 92 | > 100 | > 100 | devoid of antiviral activity
8 | CC1CCCC2(C1)SC(C)C(=O)N2NC(=O)c1ccc(C(C)(C)C)cc1 (stereo not drawn) [Compound 2b, 4‐(tert‐Butyl)‐N‐(2,7‐dimethyl‐3‐oxo‐1‐thia‐4‐azaspiro[4.5]decan‐4‐yl)benzamide] | > 100 | > 100 | > 100 | > 100 | 78 | > 100 | > 100 | devoid of antiviral activity
9 | CC1CCC2(CC1)SC(C)C(=O)N2NC(=O)c1ccc(C(C)(C)C)cc1 (stereo not drawn) [Compound 2c, 4‐(tert‐Butyl)‐N‐(2,8‐dimethyl‐3‐oxo‐1‐thia‐4‐azaspiro[4.5]decan‐4‐yl)benzamide] | 2.4 ± 0.8 | 1.3 ± 0.3 | > 100 | > 100 | 39 ± 25 | > 100 | > 100 | –
10 | CCC1CCC2(CC1)SC(C)C(=O)N2NC(=O)c1ccc(C(C)(C)C)cc1 (stereo not drawn) [Compound 2d, 4‐(tert‐Butyl)‐N‐(8‐ethyl‐2‐methyl‐3‐oxo‐1‐thia‐4‐azaspiro[4.5]decan‐4‐yl)benzamide] | > 100 | > 100 | > 100 | > 100 | 13 | > 100 | > 100 | –
11 | CCCC1CCC2(CC1)SC(C)C(=O)N2NC(=O)c1ccc(C(C)(C)C)cc1 (stereo not drawn) [Compound 2e, 4‐(tert‐Butyl)‐N‐(2‐methyl‐3‐oxo‐8‐propyl‐1‐thia‐4‐azaspiro[4.5]decan‐4‐yl)benzamide] | > 100 | > 100 | > 100 | > 100 | 14 | > 100 | > 100 | –
12 | CC1SC2(CCC(C(C)(C)C)CC2)N(NC(=O)c2ccc(C(C)(C)C)cc2)C1=O (stereo not drawn) [Compound 2f, 4‐(tert‐Butyl)‐N‐(8‐(tert‐butyl)‐2‐methyl‐3‐oxo‐1‐thia‐4‐azaspiro[4.5]decan‐4‐yl)benzamide] | > 100 | > 100 | > 100 | > 100 | > 100 | > 100 | > 100 | –
13 | CCC(CC)O[C@@H]1C=C(C(=O)O)C[C@H](N)[C@H]1NC(C)=O [Oseltamivir carboxylate, reference compound] | 0.8 | 0.4 | 0.5 | 0.4 | > 100 | 0.8 | 0.6 | –
14 | NC(=O)c1ncn([C@@H]2O[C@H](CO)[C@@H](O)[C@H]2O)n1 [Ribavirin, reference compound] | 6.8 | 1.3 | 8.9 | 7.1 | > 100 | 9 | 5.3 | –
15 | CC(N)C12CC3CC(CC(C3)C1)C2 (stereo not drawn) [Rimantadine, reference compound] | 0.7 | 0.8 | 8 | 8.7 | > 200 | > 200 | > 200 | –
